Test: Inhibition of thermolysin by enzcheck protease assay

Row | IC50 [µM] | Ki [µM] | SMILES
1 | 13.8 | 6.98 | CC(C)C[C@H](NP(=O)(O)O[C@@H]1O[C@@H](C)[C@H](O)[C@@H](O)[C@H]1O)C(=O)N[C@@H](Cc1c[nH]c2ccccc12)C(=O)O [PHOSPHORAMIDON]
2 | 18.3 | 4.88 | CCCCC[C@H](CC(=O)NO)C(=O)N[C@H](C(=O)N1CCC[C@H]1CO)C(C)C [ACTINONIN]

Source: ChEMBL document CHEMBL1137626, “Identifying common metalloprotease inhibitors by protein fold types using Fourier transform mass spectrometry” (Bioorg Med Chem Lett, 2007)
